Entries after “also recorded” stand apart in the source; their conditions may differ.
Assays:
dSPNs = assay: Patch-clamp recording of LTP induction in striatal slices from 6-OHDA lesioned animals; design: species or system Mouse; settings: shortly after the last injection of L-DOPA (ON-state)
Experimental: (§1) Mice were deeply anesthetized intraperitoneally with a mixture of ketamine and xylazine. Parasagittal slices were cut in ice-cold aCSF. Whole-cell and perforated-patch recordings were performed in the dorsolateral striatum at 30-31° C. […] These protocols consisted of 20-60 trains of five bursts repeated at 0.1 Hz, with each burst composed of three APs preceded with three EPSPs at 50 Hz (pre-post timing pairing, +5 ms) or three APs followed by one EPSP (post-pre timing pairing, −10 ms). To ensure induction of consistent synaptic plasticity, postsynaptic neurons were depolarized to −70 mV from their typical resting membrane potentials (−85 mV) during their induction. GABAA was blocked by the bath application of gabazine (10 μM).
(§2) Data analysis was conducted with Igor Pro 6 and Clampfit 9. EPSP amplitude was calculated from 50 sweeps immediately before the start of induction and 20-30 min after the end of induction. Compiled data were expressed as mean±SEM. Statistical tests were performed using Excel and SigmaStat. Nonparametric Mann-Whitney or Wilcoxon tests were used to assess the experiment results, using a probability threshold of 0.05. Statistical analyses for behavioral data were carried out using Prism 6. Data were analyzed using parametric repeated measure two-way ANOVA followed by post hoc Bonferroni's test.

iSPNs = assay: Patch-clamp recording of LTD induction in striatal slices from 6-OHDA lesioned animals; design: species or system Mouse; settings: dyskinetic ON-state after L-DOPA
Experimental: as §1, §2

[1] = tested on: unilateral 6-OHDA lesioned mice (L-DOPA-induced dyskinesia); assay: Mouse unilateral 6-OHDA model and LID, abnormal involuntary movements (AIMs) scoring; assay type: in vivo
Experimental: Mouse Unilateral 6-Hydroxydopamine (6-OHDA) Model and LID
Mice were anaesthetized with an isoflurane precision vaporizer, placed in a stereotaxic frame, and a hole was drilled over the medial forebrain bundle. After exposing the skull, 3.5 mg ml^−1 free base 6-OHDA with 0.02% ascorbic acid was injected using a glass micropipette. Three weeks after surgery, the degree of damage to nigrostriatal DA neurons was assessed with a forelimb-use asymmetry test. Striatal sections from a subset of mice were stained with tyrosine hydroxylase to verify successful lesion. One day after the test, mice underwent behavioral testing for abnormal involuntary movements (AIMs) following L-DOPA treatment. Treatment with L-DOPA was given daily for 15 days at the doses of 3 mg kg^−1. Animals were randomly allocated to receive treatment with L-DOPA and vehicle, or L-DOPA and an A2a receptor antagonist.
as §2, with “Nonparametric Mann-Whitney or Wilcoxon tests were used to assess the experiment results, using a probability threshold of 0.05. Statistical analyses for behavioral data were carried out using Prism 6.” left out

SMILES | LTP induction in dSPNs (dSPNs) | LTD induction in iSPNs (iSPNs) | development of LID behaviors ([1]; systemic tozadenant 30 mg/kg 5 hours after L-DOPA doses, L-DOPA 3 mg/kg daily for 15 days, vs L-DOPA+vehicle, p<0.05) | LID scores induced by subsequent doses of L-DOPA (ON-state) ([1]; treated in the LID OFF-state)
N[C@@H](Cc1ccc(O)c(O)c1)C(=O)O [L-DOPA, L-3,4-dihydroxyphenylalanine] | LTP was recovered in dSPNs; also recorded: restores LTP in dSPNs | LTD was recovered; also recorded: LTD in iSPNs | – | –
COc1ccc(N2CCOCC2)c2sc(NC(=O)N3CCC(C)(O)CC3)nc12 [tozadenant] | – | – | reduces the development of LID behaviors | significantly attenuates LID scores
